# Experimental data: US20090062273A1, “3-H-pyrazolopyridines and salts thereof, pharmaceutical compositions comprising same, methods of preparing same and uses of same” (priority 2006, published 2009)
# Experiments:
# Tie2 = Tie2 (Homo sapiens, UniProt Q02763); assay: Tie-2-Kinase HTRF-Assay without kinase preactivation; assay type: biochemical; parameters: fusion protein of GST and the intracellular domains of Tie-2; GST; made in house; host or cells: insect cells (Hi-5); details: GST-Tie-2 intracellular domains, 10 μM ATP
# From the text: Tie2-inhibitory activity of compounds of the present invention was quantified employing two Tie2 HTRF assay as described in the following paragraphs.
# A recombinant fusion protein of GST and the intracellular domains of Tie-2, expressed in insect cells (Hi-5) and purified by Glutathion-Sepharose affinity chromatography was used as kinase. Alternatively, commercially available GST-Tie2-fusion protein (Upstate Biotechnology, Dundee, Scotland) can be used As substrate for the kinase reaction the biotinylated peptide biotin-Ahx-EPKDDAYPLYSDFG (C-terminus in amid form) was used which can be purchased e.g. from the company Biosynthan GmbH (Berlin-Buch, Germany). Detection of phosphorylated product is achieved specifically by a trimeric detection complex consisting of the phosphorylated substrate, streptavidin-XLent (SA-XLent) which binds to biotin, and Europium Cryptate-labeled anti-phosphotyrosine antibody PT66 which binds to phosphorylated tyrosine.
# Tie-2 (3.5 ng/measurement point) was incubated for 60 min at 22° C. in the presence of 10 μM adenosine-tri-phosphate (ATP) and 1 μM substrate peptide (biotin-Ahx-EPKDDAYPLYSDFG-NH2) with different concentrations of test compounds (0 μM and concentrations in the range 0.001-20 μM) in 5 μl assay buffer [50 mM Hepes/NaOH pH 7, 10 mM MgCl2, 0.5 mM MnCl2, 1.0 mM dithiothreitol, 0.01% NP40, protease inhibitor mixture (“Complete w/o EDTA” from Roche, 1 tablet per 2.5 ml), 1% (v/v) dimethylsulfoxide]. The reaction was stopped by the addition of 5 μl of an aqueous buffer (25 mM Hepes/NaOH pH 7.5, 0.28% (w/v) bovine serum albumin) containing EDTA (90 mM) and the HTRF (Homogeneous Time Resolved Fluorescence) detection reagents streptavidine-XLent (0.2 μM, from Cis Biointernational, Marcoule, France) and PT66-Eu-Chelate (0.3 ng/μl; a europium-chelate labelled anti-phospho-tyrosine antibody from Perkin Elmer).
# (§1) The resulting mixture was incubated 1 h at 22° C. to allow the binding of the biotinylated phosphorylated peptide to the streptavidine-XLent and the PT66-Eu-Chelate. Subsequently the amount of phosphorylated substrate peptide was evaluated by measurement of the resonance energy transfer from the PT66-Eu-Chelate to the streptavidine-XLent. Therefore, the fluorescence emissions at 620 nm and 665 nm after excitation at 350 nm was measured in a HTRF reader, e.g. a Rubystar (BMG Labtechnologies, Offenburg, Germany) or a Viewlux (Perkin-Elmer). The ratio of the emissions at 665 nm and at […] was taken as the measure for the amount of phosphorylated substrate peptide. The data were normalised (enzyme reaction without inhibitor=0% inhibition, all other assay components but no enzyme=100% inhibition) and IC50 values were calculated by a 4 parameter fit using an inhouse software.
# [1] = molecular target: T1, human insuline receptor (Ins-R) (Homo sapiens, UniProt P06213); assay: InsR HTRF assay (selectivity vs. Tie2 assay 2); assay type: biochemical; details: IC50 assay 4/IC50 assay 2
# T1 construct: GST-tagged recombinant kinase domain of the human insuline receptor; GST; purchased ProQinase, Freiburg, Germany; host or cells: SF-9 cells
# Method: Inhibitory activity of compounds against the kinase activity of the insulin receptor was quantified employing the Ins-R HTRF assay as described in the following paragraphs.
# GST-tagged recombinant kinase domain of the human insuline receptor (Ins-R, purchase from ProQinase, Freiburg, Germany) expressed in SF-9 cells was used as kinase. As substrate for the kinase reaction biotinylated poly-(Glu,Tyr) (Cis biointernational, France) was used.
# Ins-R was incubated for 20 min at 22° C. in the presence of different concentrations of test compounds in 5 μl assay buffer [50 mM Hepes/NaOH pH 7, 15 mM MnCl2, 1 mM dithiothreitol, 0.1 μM sodium ortho-vanadate, 0.015% (v/v) PEG20000, 10 μM adenosine-tri-phosphate (ATP), 0.3 μg/ml substrate, 1% (v/v) dimethylsulfoxide]. The concentration of Ins-R was adjusted depending of the activity of the enzyme lot and was chosen appropriate to have the assay in the linear range, typical concentrations were in the range of 10 pg/μL. The reaction was stopped by the addition of 5 μl of a solution of HTRF detection reagents (0.1 μM streptavidine-XLent and 1 nM PT66-Eu-Chelate, an europium-chelate labelled anti-phospho-tyrosine antibody from Perkin Elmer) in an aqueous EDTA-solution (80 mM EDTA, 0.2% (w/v) bovine serum albumin in 50 mM HEPES/NaOH pH 7.0).
# as §1, with “substrate” for “substrate peptide”, “ViewLux” for “Viewlux”, “substrate.” for “substrate peptide.”
# T1 sequence (P06213 1023-1298 limits assumed): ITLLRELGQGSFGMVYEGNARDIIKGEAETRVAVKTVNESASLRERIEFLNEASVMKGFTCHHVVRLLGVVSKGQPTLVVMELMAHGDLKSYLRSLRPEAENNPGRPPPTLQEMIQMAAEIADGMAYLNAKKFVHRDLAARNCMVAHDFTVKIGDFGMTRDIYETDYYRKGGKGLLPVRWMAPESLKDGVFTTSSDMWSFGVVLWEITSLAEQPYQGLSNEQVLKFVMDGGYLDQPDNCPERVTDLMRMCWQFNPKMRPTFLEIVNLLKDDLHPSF
# Sequence of Tie2 (Q02763 770-1124 limits assumed, species assumed): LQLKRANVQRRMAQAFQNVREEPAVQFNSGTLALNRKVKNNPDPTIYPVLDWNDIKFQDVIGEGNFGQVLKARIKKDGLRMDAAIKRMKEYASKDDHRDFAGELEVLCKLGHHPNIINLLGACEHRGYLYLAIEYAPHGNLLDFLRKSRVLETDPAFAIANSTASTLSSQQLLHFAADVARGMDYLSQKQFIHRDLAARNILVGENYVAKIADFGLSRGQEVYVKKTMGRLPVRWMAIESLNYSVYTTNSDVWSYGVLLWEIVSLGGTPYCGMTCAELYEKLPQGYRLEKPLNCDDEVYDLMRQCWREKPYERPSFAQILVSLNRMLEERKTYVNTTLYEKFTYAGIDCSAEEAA
SMILES,IC50 (Tie2),Selectivity vs. InsR [1]
"CN(C)CCN(C)c1ccc(C(F)(F)F)cc1NC(=O)Nc1ccc(-c2cncc3c2cnn3C)cc1 [Example 13.13, 1-{2-[(2-Dimethylamino-ethyl)-methyl-amino]-5-trifluoromethyl-phenyl}-3-[4-(1-methyl-1H-pyrazolo[3,4-c]pyridin-4-yl)-phenyl]-urea]",< 501 nM,>50fold
"Cn1nc(C(C)(C)C)cc1NC(=O)Nc1ccc(-c2cncc3c2cnn3C)cc1 [Example 14.3, 1-(5-tert-Butyl-2-methyl-2H-pyrazol-3-yl)-3-[4-(1-methyl-1H-pyrazolo[3,4-c]pyridin-4-yl)-phenyl]-urea]",< 501 nM,>50fold
"Cn1ncc2c(-c3ccc(NC(=O)Nc4cc(C(F)(F)F)ccn4)c(F)c3)cncc21 [Example 14.5, 1-[2-Fluoro-4-(1-methyl-1H-pyrazolo[3,4-c]pyridin-4-yl)-phenyl]-3-(4-trifluoromethyl-pyridin-2-yl)-urea]",< 501 nM,>50fold
"CC(C)c1cc(NC(=O)Nc2ccc(-c3cncc4c3cnn4C)cc2)n(-c2cccc(F)c2)n1 [Example 15.1, 1-[2-(3-Fluoro-phenyl)-5-isopropyl-2H-pyrazol-3-yl]-3-[4-(1-methyl-1H-pyrazolo[3,4-c]pyridin-4-yl)-phenyl]-urea]",< 501 nM,>50fold
"CC(C)c1cc(NC(=O)Nc2ccc(-c3cncc4c3cnn4C)cc2F)n(-c2cccc(F)c2)n1 [Example 15.2, 1-[2-Fluoro-4-(1-methyl-1H-pyrazolo[3,4-c]pyridin-4-yl)-phenyl]-3-[2-(3-fluoro-phenyl)-5-isopropyl-2H-pyrazol-3-yl]-urea]",< 501 nM,>50fold
"COc1cccc(-n2nc(C(C)(C)C)cc2NC(=O)Nc2ccc(-c3cncc4c3cnn4C)cc2)c1 [Example 15.5, 1-[5-tert-Butyl-2-(3-methoxy-phenyl)-2H-pyrazol-3-yl]-3-[4-(1-methyl-1H-pyrazolo[3,4-c]pyridin-4-yl)-phenyl]-urea]",< 501 nM,>50fold
"Cn1ncc2c(-c3ccc(NC(=O)Nc4cc(C(C)(C)C)nn4-c4ccc(F)cc4)cc3)cncc21 [Example 15.7, 1-[5-tert-Butyl-2-(4-fluoro-phenyl)-2H-pyrazol-3-yl]-3-[4-(1-methyl-1H-pyrazolo[3,4-c]pyridin-4-yl)-phenyl]-urea]",< 501 nM,>50fold
"Cn1ncc2c(-c3ccc(NC(=O)Nc4cc(C(C)(C)C)nn4-c4ccncc4)cc3)cncc21 [Example 15.10, 1-(5-tert-Butyl-2-pyridin-4-yl-2H-pyrazol-3-yl)-3-[4-(1-methyl-1H-pyrazolo[3,4-c]pyridin-4-yl)-phenyl]-urea]",< 501 nM,>50fold
"Cn1ncc2c(-c3ccc(NC(=O)Nc4cc(C(C)(C)C)nn4-c4cncc(F)c4)cc3)cncc21 [Example 15.12, 1-[5-tert-Butyl-2-(5-fluoro-pyridin-3-yl)-2H-pyrazol-3-yl]-3-[4-(1-methyl-1H-pyrazolo[3,4-c]pyridin-4-yl)-phenyl]-urea]",< 501 nM,>50fold
"Cn1ncc2c(-c3ccc(NC(=O)Nc4cc(C(C)(C)C)nn4-c4cncc(F)c4)c(F)c3)cncc21 [Example 15.13, 1-[5-tert-Butyl-2-(5-fluoro-pyridin-3-yl)-2H-pyrazol-3-yl]-3-[2-fluoro-4-(1-methyl-1H-pyrazolo[3,4-c]pyridin-4-yl)-phenyl]-urea]",< 501 nM,>50fold

# Further lines, results first:
IC50 (Tie2),Selectivity vs. InsR [1],SMILES
< 501 nM,>50fold,"COCCn1ncc2c(-c3ccc(NC(=O)Nc4cc(C)ccc4F)cc3)cncc21 [Example 12.3, 1-(2-Fluoro-5-methyl-phenyl)-3-{4-[1-(2-methoxy-ethyl)-1H-pyrazolo[3,4-c]pyridin-4-yl]-phenyl}-urea]"
< 501 nM,>50fold,"COCCn1ncc2c(-c3ccc(NC(=O)Nc4cccc(C(F)(F)F)c4)c(F)c3)cncc21 [Example 12.4, 1-{2-Fluoro-4-[1-(2-methoxy-ethyl)-1H-pyrazolo[3,4-c]pyridin-4-yl]-phenyl}-3-(3-trifluoromethyl-phenyl)-urea]"
< 501 nM,>50fold,"COCCn1ncc2c(-c3ccc(NC(=O)Nc4cc(C(F)(F)F)ccc4F)c(F)c3)cncc21 [Example 12.5, 1-{2-Fluoro-4-[1-(2-methoxy-ethyl)-1H-pyrazolo[3,4-c]pyridin-4-yl]-phenyl}-3-(2-fluoro-5-trifluoromethyl-phenyl)-urea]"
< 501 nM,>50fold,"Cn1ncc2c(-c3ccc(NC(=O)Nc4cc(C(C)(C)C)on4)cc3)cncc21 [Example 13.2, 1-(5-tert-Butyl-isoxazol-3-yl)-3-[4-(1-methyl-1H-pyrazolo[3,4-c]pyridin-4-yl)-phenyl]-urea]"
< 501 nM,>50fold,"Cn1ncc2c(-c3ccc(NC(=O)Nc4cc(C(C)(C)C)nn4-c4ccccc4)cc3)cncc21 [Example 13.4, 1-(5-tert-Butyl-2-phenyl-2H-pyrazol-3-yl)-13-[4-(1-methyl-1H-pyrazolo[3,4-c]pyridin-4-yl)-phenyl]-urea]"
< 501 nM,>50fold,"CN1CCN(Cc2ccc(NC(=O)Nc3ccc(-c4cncc5c4cnn5C)cc3F)cc2C(F)(F)F)CC1 [Example 13.6, 1-[2-Fluoro-4-(1-methyl-1H-pyrazolo[3,4-c]pyridin-4-yl)-phenyl]-3-[4-(4-methyl-piperazin-1-ylmethyl)-3-trifluoromethyl-phenyl]-urea]"
< 501 nM,>50fold,"CN(C)c1ccc(C(F)(F)F)cc1NC(=O)Nc1ccc(-c2cncc3c2cnn3C)cc1 [Example 13.11, 1-(2-Dimethylamino-5-trifluoromethyl-phenyl)-3-[4-(1-methyl-1H-pyrazolo[3,4-c]pyridin-4-yl)-phenyl]-urea]"
< 501 nM,>50fold,"CN(C)C1CCN(c2ccc(C(F)(F)F)cc2NC(=O)Nc2ccc(-c3cncc4c3cnn4C)cc2)C1 (stereo not drawn) [Example 13.12, 1-[2-(3-Dimethylamino-pyrrolidin-1-yl)-5-trifluoromethyl-phenyl]-3-[4-(1-methyl-1H-pyrazolo[3,4-c]pyridin-4-yl)-phenyl]-urea]"
